In PubChem BioAssay (NCI):
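Tested at 5 concentrations; 48 h exposure; 96-well plates; endpoints linearly interpolated, else capped at highest concentration. Here, GI50 denotes the concentration required for 50% inhibition of growth. The concentration for full growth arrest is given as TGI.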

Experiments:
Assay in all cases: inhibition of tumour cell growth, NCI panel, 48 h
[1] = system: ACHN renal
[2] = system: OVCAR-5 ovarian
[3] = system: HCT-15 colon
[4] = system: SF-539 CNS
[5] = system: LOX IMVI melanoma
[6] = system: HT29 colon
[7] = system: CAKI-1 renal
[8] = system: SF-268 CNS
[9] = system: U251 CNS
[10] = system: BT-549 breast

| Compound | TGI [1] [µM] | TGI [2] [µM] | TGI [3] [µM] | TGI [4] [µM] | TGI [5] [µM] | TGI [6] [µM] | TGI [7] [µM] | TGI [8] [µM] | TGI [9] [µM] | GI50 [1] [µM] | GI50 [3] [nM] | GI50 [5] [µM] | GI50 [6] [nM] | GI50 [7] [nM] | GI50 [10] [µM] | TGI [10] [µM] | GI50 [8] [µM] | GI50 [9] [µM] |
| --- | --- | --- | --- | --- | --- | --- | --- | --- | --- | --- | --- | --- | --- | --- | --- | --- | --- | --- |
| CCC(=O)N(O)C(C)(C)C | > 100 | > 100 | > 100 | > 100 | > 100 | > 100 | > 100 | > 100 | > 100 |  |  |  |  |  |  |  |  |  |
| C/C=C/C=C/CCCCCCCCCCCCCC1(OC)C=CC(CC(=O)OC)OO1 (configuration not stated) | 16.7 |  | 11.2 | 28.6 | 3.9 | 3.43 | 3.44 | 34 | 31.2 | 6 | 3080 | 2.02 | 1820 | 1600 |  |  |  |  |
| COc1cc(C)c(O)c(C(=O)O)c1 | > 100 | > 100 | > 100 |  | > 100 | > 100 | > 100 | > 100 | > 100 |  |  |  |  |  |  |  |  |  |
| Cc1ccc(Sc2ccc(C)cc2[N+](=O)[O-])c([N+](=O)[O-])c1 | > 100 | > 100 | > 100 | > 100 | > 100 | > 10 | > 10 | > 100 | > 100 |  |  |  |  |  |  |  |  |  |
| C=C1CCC2[C@@H](CCC3[C@]2(C)CCC[C@]3(C)C(=O)OC)C1CCO (some centres not stated) | 29.4 | 33.2 | 27.3 | 26.3 |  | 17.8 | 24.9 | 29.1 | 26.4 |  |  |  |  |  |  |  |  |  |
| CC(=O)NC1CC2Oc3ccc(C)cc3C(C)(O2)C1O (configuration not stated) | > 100 |  | > 100 | > 100 | > 100 | > 100 |  |  | > 100 |  |  |  |  |  |  |  |  |  |
| CCN(CC)CC(C(=O)Nc1c(C)cccc1C)/C(C)=N\NC(=O)c1ccncc1 (configuration not stated) | > 100 | > 100 | > 100 | > 100 | > 100 | > 100 | > 100 | > 100 | > 100 |  |  |  |  |  |  |  |  |  |
| COc1cc(/C=C/C(=O)c2sc(NNC(C)=O)nc2C)ccc1O | > 100 | > 100 | > 100 | > 100 | > 100 | > 100 | > 100 | > 100 | > 100 |  |  |  |  |  |  |  |  |  |
| C=CCNC(=O)NCCCC(NC(C)=O)C(=O)NCc1ccccc1 (configuration not stated) | > 100 | > 100 | > 100 | > 100 | > 100 | > 100 | > 100 | > 100 | > 100 |  |  |  |  |  |  |  |  |  |
| O=C(CCc1cc(-c2ccccc2)nc(=S)[nH]1)Nc1ccccc1[N+](=O)[O-] | > 100 | > 100 | > 100 | > 100 | > 100 | > 100 | > 100 | > 100 | > 100 |  |  |  |  |  |  |  |  |  |
| O=C1CCC2(c3ccccc3)Nc3ncccc3N12 (configuration not stated) | > 100 | > 100 | > 100 | > 100 | > 100 | > 100 | > 100 | > 100 | > 100 |  |  |  |  |  |  |  |  |  |
| CCOC(=O)c1nc(-c2ccccc2)oc1OCC |  |  |  | > 100 | > 100 | > 100 |  | > 100 | > 100 |  |  |  |  |  |  |  |  |  |
| CS/C(=N\c1nccs1)NC(=O)c1cccc(Cl)c1 | > 100 | > 100 | > 100 | > 100 | > 100 | > 100 | > 100 | > 100 | > 100 |  |  |  |  |  |  |  |  |  |
| CCOc1ccccc1/C=N\N=C(\N)N/N=C/c1ccccc1OCC | > 100 |  | > 100 |  | > 100 | > 100 | > 100 | > 100 | > 100 | 3.82 | 1460 | 4.68 | 2500 | 4120 | 5.08 | > 100 | 3.11 | 3.35 |
| O=C(Nc1nc(=S)c2c(ncn2CCO)[nH]1)c1ccccc1 | > 100 | > 100 | > 100 | > 100 | > 100 | > 100 | > 100 | > 100 | > 100 |  |  |  |  |  |  |  |  |  |
| O=C1c2ccccc2CC1C1(O)C(=O)Nc2ccccc21 (configuration not stated) | > 100 | > 100 | > 100 | > 100 | > 100 | > 100 | > 100 | > 100 |  |  |  |  |  |  |  |  |  |  |
| COC(=O)c1cc(-c2cccn2C)c2c(c1C(=O)OC)c1ccccc1n2C | > 100 |  | > 100 | > 100 | > 100 | > 100 |  |  | > 100 |  |  |  |  |  |  |  |  |  |
| CCCC(Sc1ccccc1)P(=O)(c1ccccc1)c1ccccc1 (configuration not stated) | 61.4 |  |  | > 100 | > 100 |  | > 100 | > 100 | > 100 |  |  |  |  |  |  |  |  |  |
